Tests used:
[1] = biological target: C-C chemokine receptor type 5 (Homo sapiens, UniProt P51681); type: cell membranes, Membrane; settings: hek293; further: in other assays of this panel Not Active means under 50% inhibition at 10 µM
Substance-P receptor = Substance-P receptor (Homo sapiens, UniProt P25103); type: cell membranes, CHO, Membrane; settings: cho; further: in other assays of this panel Not Active means under 50% inhibition at 10 µM
[2] = biological target: Beta-2 adrenergic receptor (Homo sapiens, UniProt P07550); assay: DRUGMATRIX: Adrenergic beta2 radioligand binding (ligand: [3H] CGP-12177); type: cell membranes, CHO, Membrane; settings: cho; Not Active = under 50% inhibition at 10 µM
[3] = biological target: T1, 5-hydroxytryptamine receptor 1A (Rattus norvegicus, UniProt P19327); type: cell membranes, CHO-K1, Membrane; further: in other assays of this panel Not Active means under 50% inhibition at 10 µM
T1 sequence (P19327 whole entry): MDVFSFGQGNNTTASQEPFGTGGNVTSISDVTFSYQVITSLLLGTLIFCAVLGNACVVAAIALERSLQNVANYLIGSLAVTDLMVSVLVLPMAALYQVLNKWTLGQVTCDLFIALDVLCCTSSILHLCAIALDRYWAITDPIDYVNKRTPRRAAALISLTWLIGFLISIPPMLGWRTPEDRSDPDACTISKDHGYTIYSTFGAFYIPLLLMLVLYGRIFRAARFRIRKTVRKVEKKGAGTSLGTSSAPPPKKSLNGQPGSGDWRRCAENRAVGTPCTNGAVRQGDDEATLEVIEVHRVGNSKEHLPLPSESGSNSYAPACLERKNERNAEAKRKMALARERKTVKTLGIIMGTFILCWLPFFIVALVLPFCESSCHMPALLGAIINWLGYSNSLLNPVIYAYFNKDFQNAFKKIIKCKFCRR

Interstitial collagenase = biological target: T2, Interstitial collagenase (Homo sapiens, UniProt P03956); assay: biochemical; type: tissue-based, Rheumatoid synovial fibroblasts;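 further: MMP-1 enzyme inhibition assay using a peptide substrate; in other assays of this panel Not Active means under 50% inhibition at 10 µM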
T2 sequence (P03956 whole entry): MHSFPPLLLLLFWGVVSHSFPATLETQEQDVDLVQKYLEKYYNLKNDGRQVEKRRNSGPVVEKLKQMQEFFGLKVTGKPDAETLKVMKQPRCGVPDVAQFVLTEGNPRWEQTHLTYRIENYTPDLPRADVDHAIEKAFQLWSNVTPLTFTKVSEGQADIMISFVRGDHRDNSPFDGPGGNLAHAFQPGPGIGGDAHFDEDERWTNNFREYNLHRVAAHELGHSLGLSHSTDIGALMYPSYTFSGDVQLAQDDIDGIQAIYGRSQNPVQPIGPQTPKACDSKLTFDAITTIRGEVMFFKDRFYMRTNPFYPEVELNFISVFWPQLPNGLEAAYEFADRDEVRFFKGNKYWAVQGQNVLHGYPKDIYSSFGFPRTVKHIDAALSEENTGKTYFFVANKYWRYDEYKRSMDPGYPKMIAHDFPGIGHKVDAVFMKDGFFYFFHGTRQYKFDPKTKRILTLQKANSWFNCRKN

[4] = biological target: T3, Alpha-2C adrenergic receptor (Homo sapiens, UniProt P18825); assay: DRUGMATRIX: Adrenergic Alpha-2C radioligand binding (ligand: [3H] MK-912); type: cell membranes, Sf9, Membrane
T3 sequence (P18825 whole entry): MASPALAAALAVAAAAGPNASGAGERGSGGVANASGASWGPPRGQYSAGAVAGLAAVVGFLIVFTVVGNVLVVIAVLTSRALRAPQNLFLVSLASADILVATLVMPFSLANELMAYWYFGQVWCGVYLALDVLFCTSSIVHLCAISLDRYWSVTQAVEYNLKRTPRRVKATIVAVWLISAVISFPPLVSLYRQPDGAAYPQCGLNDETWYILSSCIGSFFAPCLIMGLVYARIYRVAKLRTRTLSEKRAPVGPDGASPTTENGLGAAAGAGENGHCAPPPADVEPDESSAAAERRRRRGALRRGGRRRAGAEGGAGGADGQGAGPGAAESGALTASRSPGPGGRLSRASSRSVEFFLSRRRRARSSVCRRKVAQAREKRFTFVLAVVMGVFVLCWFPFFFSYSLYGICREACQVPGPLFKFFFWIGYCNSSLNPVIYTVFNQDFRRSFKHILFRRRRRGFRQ

Chain of Substance-P receptor (P25103 whole entry): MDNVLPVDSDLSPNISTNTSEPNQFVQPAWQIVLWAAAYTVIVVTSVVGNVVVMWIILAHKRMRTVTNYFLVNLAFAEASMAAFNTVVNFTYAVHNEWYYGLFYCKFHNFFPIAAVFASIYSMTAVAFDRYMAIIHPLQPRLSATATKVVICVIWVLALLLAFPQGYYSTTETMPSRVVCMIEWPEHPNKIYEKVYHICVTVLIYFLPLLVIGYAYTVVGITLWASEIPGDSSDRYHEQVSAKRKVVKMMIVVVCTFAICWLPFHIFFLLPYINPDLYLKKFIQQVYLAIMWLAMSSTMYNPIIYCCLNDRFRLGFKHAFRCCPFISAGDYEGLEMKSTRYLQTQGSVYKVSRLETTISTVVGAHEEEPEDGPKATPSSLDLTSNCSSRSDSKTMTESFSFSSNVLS
Chain of C-C chemokine receptor type 5 (P51681 whole entry): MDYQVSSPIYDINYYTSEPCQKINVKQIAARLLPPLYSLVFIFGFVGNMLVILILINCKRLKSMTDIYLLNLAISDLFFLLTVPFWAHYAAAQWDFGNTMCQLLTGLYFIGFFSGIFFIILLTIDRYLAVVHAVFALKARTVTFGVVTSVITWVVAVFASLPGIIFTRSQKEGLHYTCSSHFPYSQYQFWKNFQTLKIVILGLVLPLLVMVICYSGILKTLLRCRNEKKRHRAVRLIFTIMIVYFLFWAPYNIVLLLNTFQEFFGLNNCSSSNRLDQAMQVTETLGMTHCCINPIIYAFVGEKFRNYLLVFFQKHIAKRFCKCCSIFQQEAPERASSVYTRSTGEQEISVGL

CC(c1cc2ccccc2s1)N(O)C(N)=O (centres undefined) [ZILEUTON]
Not Active: IC50 [1] | IC50 (Substance-P receptor) | IC50 [2] | IC50 ([3]; cho-k1) | IC50 (Interstitial collagenase) | IC50 ([4]; sf9)

O=C1Nc2ccc(Cl)cc2C(c2ccccc2Cl)=NC1O (centres undefined) [LORAZEPAM]
Not Active: IC50 [1] | IC50 (Substance-P receptor) | IC50 [2] | IC50 ([3]; cho-k1) | IC50 (Interstitial collagenase) | IC50 ([4]; sf9)

CCN(CC)CCOc1ccc(/C(=C(/Cl)c2ccccc2)c2ccccc2)cc1 [ENCLOMIPHENE]
0.215 µM: Ki ([4]; read-out: Ki)
Not Active: IC50 [1] | IC50 (Substance-P receptor) | IC50 [2] | IC50 ([3]; cho-k1) | IC50 (Interstitial collagenase)
1.48 µM: IC50 ([4]; read-out: IC50)

CC(C)Cc1ccc([C@@H](C)C(=O)O)cc1 [(R)-IBUPROPHEN]
Not Active: IC50 [1] | IC50 (Substance-P receptor) | IC50 [2] | IC50 ([3]; cho-k1) | IC50 (Interstitial collagenase) | IC50 ([4]; sf9)

O=C(Nc1ccc(Br)cc1)c1cc(Br)cc(Br)c1O [TRIBROMSALAN]
Not Active: IC50 [1] | IC50 (Substance-P receptor) | IC50 [2] | IC50 ([3]; cho-k1) | IC50 (Interstitial collagenase) | IC50 ([4]; sf9)

CN(C/C=C/C#CC(C)(C)C)Cc1cccc2ccccc12 [TERBINAFINE]
Not Active: IC50 [1] | IC50 (Substance-P receptor) | IC50 [2] | IC50 ([3]; cho-k1) | IC50 (Interstitial collagenase) | IC50 ([4]; sf9)

Cn1c(=O)c2nc[nH]c2n(C)c1=O.O [THEOPHYLLINE]
Not Active: IC50 [1] | IC50 (Substance-P receptor) | IC50 [2] | IC50 ([3]; cho-k1) | IC50 (Interstitial collagenase) | IC50 ([4]; sf9)

CC(C)NCC(O)c1ccc(NS(C)(=O)=O)cc1 (centres undefined) [SOTALOL]
Not Active: IC50 [1] | IC50 (Substance-P receptor) | IC50 ([3]; cho-k1) | IC50 (Interstitial collagenase) | IC50 ([4]; sf9)

CO[C@@H]1[C@@H](OC)[C@H](C)[C@@](O)(CC(=O)O)O[C@H]1[C@H](C)[C@H]1O[C@@]2(CC[C@@](C)([C@H]3CC[C@@](C)([C@@H]4O[C@@H]([C@H]5O[C@](C)(O)[C@H](C)C[C@@H]5C)C[C@@H]4O[C@@H]4C[C@H](OC)[C@@H](OC)[C@H](C)O4)O3)O2)C[C@H](O)[C@H]1C [MADURAMICIN ACID]
Not Active: IC50 [1] | IC50 (Substance-P receptor) | IC50 [2] | IC50 (Interstitial collagenase)
1.61 µM: IC50 ([4]; read-out: IC50)
0.00447 µM: Ki ([3]; read-out: Ki)
0.234 µM: Ki ([4]; read-out: Ki)
0.00783 µM: IC50 ([3]; read-out: IC50)

SODIUM ORTHOVANAD
Not Active: IC50 [1] | Ki [1] | IC50 (Substance-P receptor) | Ki (Substance-P receptor) | IC50 [2] | Ki [2] | IC50 ([3]; cho-k1) | Ki ([3]; cho-k1) | IC50 (Interstitial collagenase) | Ki (Interstitial collagenase) | IC50 ([4]; sf9) | Ki ([4]; sf9)

Cc1cccc(C)c1OCC(C)N (centres undefined) [MEXILETINE]
Not Active: IC50 [1] | IC50 (Substance-P receptor) | IC50 [2] | IC50 ([3]; cho-k1) | IC50 (Interstitial collagenase) | IC50 ([4]; sf9)

CC(C)NCC(O)c1ccc(O)c(O)c1 (centres undefined) [ISOPROTERENOL]
Not Active: IC50 [1] | IC50 (Substance-P receptor) | IC50 ([3]; cho-k1) | IC50 (Interstitial collagenase) | IC50 ([4]; sf9)

NC1CCN(c2nc3c(cc2F)c(=O)c(C(=O)O)cn3-c2ccc(F)cc2F)C1 (centres undefined) [TOSUFLOXACIN]
Not Active: IC50 [1] | IC50 (Substance-P receptor) | IC50 [2] | IC50 ([3]; cho-k1) | IC50 (Interstitial collagenase) | IC50 ([4]; sf9)

COc1ccc(CCN(C)CCCC(C#N)(c2ccc(OC)c(OC)c2)C(C)C)cc1OC (centres undefined)
1.73 µM: Ki ([3]; read-out: Ki)
3.02 µM: IC50 [3]
Not Active: IC50 [1] | IC50 (Substance-P receptor) | IC50 [2] | IC50 (Interstitial collagenase) | IC50 ([4]; sf9)

CN[C@H]1CC[C@@H](c2ccc(Cl)c(Cl)c2)c2ccccc21 [SERTRALINE]
Not Active: IC50 [1] | IC50 (Substance-P receptor) | IC50 [2] | IC50 ([3]; cho-k1) | IC50 (Interstitial collagenase)

O=C(Oc1ccccc1C(=O)O)c1ccccc1O [SALSALATE]
Not Active: IC50 [1] | IC50 (Substance-P receptor) | IC50 [2] | IC50 ([3]; cho-k1) | IC50 (Interstitial collagenase) | IC50 ([4]; sf9)

NC(=O)N1C(=O)/C(=C(\O)c2cccs2)c2cc(Cl)ccc21 [TENIDAP]
Not Active: IC50 [1] | IC50 (Substance-P receptor) | IC50 [2] | IC50 ([3]; cho-k1) | IC50 (Interstitial collagenase) | IC50 ([4]; sf9)

O=C1C(CC[S+]([O-])c2ccccc2)C(=O)N(c2ccccc2)N1c1ccccc1 (centres undefined) [SULFINPYRAZONE]
Not Active: IC50 [1] | IC50 (Substance-P receptor) | IC50 [2] | IC50 ([3]; cho-k1) | IC50 (Interstitial collagenase) | IC50 ([4]; sf9)

C[C@H]1C[C@@H]2[C@H]([C@@H](O)C[C@@]3(C)[C@H]2CC[C@]3(O)C(=O)CO)[C@@]2(C)C=CC(=O)C=C12 [METHYLPREDNISOLONE]
Not Active: IC50 [1] | IC50 (Substance-P receptor) | IC50 [2] | IC50 ([3]; cho-k1) | IC50 (Interstitial collagenase) | IC50 ([4]; sf9)

N#Cc1ccc(C(c2ccc(C#N)cc2)n2cncn2)cc1 [LETROZOLE]
Not Active: IC50 [1] | IC50 (Substance-P receptor) | IC50 [2] | IC50 ([3]; cho-k1) | IC50 (Interstitial collagenase) | IC50 ([4]; sf9)

Fc1ccc(C(c2ccc(F)cc2)N2CCN(C/C=C/c3ccccc3)CC2)cc1 [FLUNARIZINE]
0.222 µM: IC50 ([4]; read-out: IC50)
Not Active: IC50 [1] | IC50 (Substance-P receptor) | IC50 [2] | IC50 (Interstitial collagenase)
2.45 µM: Ki ([3]; read-out: Ki)
0.032 µM: Ki ([4]; read-out: Ki)
4.28 µM: IC50 ([3]; read-out: IC50)

COc1cc2nc(N3CCN(C(=O)C4CCCO4)CC3)nc(N)c2cc1OC (centres undefined) [TERAZOSIN]
Not Active: IC50 [1] | IC50 (Substance-P receptor) | IC50 [2] | IC50 ([3]; cho-k1) | IC50 (Interstitial collagenase)

O=C(O)c1cn(-c2ccc(F)cc2)c2cc(N3CCNCC3)c(F)cc2c1=O [SARAFLOXACIN]
Not Active: IC50 [1] | IC50 (Substance-P receptor) | IC50 [2] | IC50 ([3]; cho-k1) | IC50 (Interstitial collagenase) | IC50 ([4]; sf9)

CO[C@H]1/C=C/O[C@@]2(C)Oc3c(C)c(O)c4c(O)c(c(/C=N/N5CCN(C6CCCC6)CC5)c(O)c4c3C2=O)NC(=O)/C(C)=C\C=C\[C@H](C)[C@H](O)[C@@H](C)[C@@H](O)[C@@H](C)[C@H](OC(C)=O)[C@@H]1C [RIFAPENTINE]
Not Active: IC50 [1] | IC50 (Substance-P receptor) | IC50 [2] | IC50 ([3]; cho-k1) | IC50 (Interstitial collagenase) | IC50 ([4]; sf9)

CCCCOc1cc(CC2CNC(=O)N2)ccc1OC (centres undefined) [RO-201724]
Not Active: IC50 [1] | IC50 (Substance-P receptor) | IC50 [2] | IC50 ([3]; cho-k1) | IC50 (Interstitial collagenase) | IC50 ([4]; sf9)

CC[C@@H](C(=O)[C@@H](C)[C@@H](O)[C@H](C)[C@@H]1O[C@@H]([C@@H](CC)C(=O)O)CC[C@@H]1C)[C@H]1O[C@]2(C=C[C@@H](O)[C@]3(CC[C@@](C)([C@H]4CC[C@](O)(CC)[C@H](C)O4)O3)O2)[C@H](C)C[C@@H]1C [SALINOMYCIN]
Not Active: IC50 [1] | IC50 (Substance-P receptor) | IC50 [2] | IC50 ([3]; cho-k1) | IC50 (Interstitial collagenase) | IC50 ([4]; sf9)

CN(C)CCOC(c1ccccc1)c1ccccc1 [DIPHENHYDRAMINE]
Not Active: IC50 [1] | IC50 (Substance-P receptor) | IC50 [2] | IC50 ([3]; cho-k1) | IC50 (Interstitial collagenase) | IC50 ([4]; sf9)

CCCCNc1ccc(C(=O)OCCN(C)C)cc1 [TETRACAINE]
Not Active: IC50 [1] | IC50 (Substance-P receptor) | IC50 [2] | IC50 ([3]; cho-k1) | IC50 (Interstitial collagenase) | IC50 ([4]; sf9)

CCN(CC)CCNC(=O)c1cc(S(C)(=O)=O)ccc1OC [TIAPRIDE]
Not Active: IC50 [1] | IC50 (Substance-P receptor) | IC50 [2] | IC50 ([3]; cho-k1) | IC50 (Interstitial collagenase) | IC50 ([4]; sf9)

MANGANESE CHLORIDE ANHYDROUS
Not Active: IC50 [1] | Ki [1] | IC50 (Substance-P receptor) | Ki (Substance-P receptor) | IC50 [2] | Ki [2] | IC50 ([3]; cho-k1) | Ki ([3]; cho-k1) | IC50 (Interstitial collagenase) | Ki (Interstitial collagenase) | IC50 ([4]; sf9) | Ki ([4]; sf9)

From ChEMBL document CHEMBL1909046, “DrugMatrix in vitro pharmacology data”
